Measurements published in US11046681B2, “Substituted piperidines for the treatment of cancer” (LES LABORATOIRES SERVIER, priority 2016, dated 2021).

The compounds below were run against His-His-USP7 (aa208-560, [C315A]) (Homo sapiens (Human), UniProt Q93009, C315A) (assay: Evaluation of the inhibition of USP7 by Fluorescence Intensity (FLINT) readings). Conditions: 0.25 nM USP7, 60 minutes at 30° C. preincubation, 500 nM Ubiquitin-Rhodamine-110 substrate, 50% reduction in kinetic rate.
Format: biochemical
Description: USP7 activity was measured using Rhodamine-110 c-terminal labelled Ubiquitin as a substrate (Viva Biosciences). Incubation with USP7 results in the release of Rhodamine-110 leading to an increase in fluorescence which can be used in the continuous measurement of USP7 activity.
The USP7 reactions were performed in a 50 μL volume, in 384 well black solid low binding plates (Corning #3575). The reaction buffer consisted of 100 mM Bicine pH 8.0, 0.01% TritonX100, 1 mM TCEP, and 10% DMSO.
0.25 nM His-His-USP7 (aa208-560, [C315A]) was incubated with compound (final concentration 10% DMSO) for 60 minutes at 30° C. The reaction was then initiated by the addition of 500 nM Ubiquitin-Rhodamine-110 substrate and the plate read every 3 minutes for 21 minutes to measure the release of Rhodamine-110. Fluorescence Intensity (FLINT) readings were measured using a […] Neo plate reader (Ex.485 nm, Em.535 nm).
The inhibition of increasing doses of compound was expressed as a percentage reduction in kinetic rate compared to the kinetic rates established between ‘DMSO only’ and ‘total inhibition’ controls (no USP7). The inhibitory concentrations that gave a 50% reduction in kinetic rate (IC50) were determined, from 11-point dose response curves, in XL-Fit using a 4-Parameter Logistic Model (Sigmoidal Dose-Response Model).

His-His-USP7 (aa208-560, [C315A]), sequence (Q93009 208-560 C315A): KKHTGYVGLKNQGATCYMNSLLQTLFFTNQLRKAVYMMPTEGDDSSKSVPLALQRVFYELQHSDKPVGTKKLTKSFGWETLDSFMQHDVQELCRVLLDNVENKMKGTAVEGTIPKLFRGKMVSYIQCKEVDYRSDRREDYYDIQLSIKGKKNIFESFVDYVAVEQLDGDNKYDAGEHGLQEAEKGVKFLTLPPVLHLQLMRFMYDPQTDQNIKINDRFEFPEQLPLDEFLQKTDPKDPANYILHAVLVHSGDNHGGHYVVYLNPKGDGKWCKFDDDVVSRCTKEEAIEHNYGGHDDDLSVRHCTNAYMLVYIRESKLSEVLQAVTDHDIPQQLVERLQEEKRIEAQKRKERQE

IC50 [µM] | SMILES
0.86 | COc1ccc(-n2ncc3c(=O)n(CC4(O)CCN(C(=O)[C@@H]5CC[N+](C)(C)C[C@H]5c5ccccc5)CC4)cnc32)cc1 [EXAMPLE 169, 5-[[1-[(3R,4R)-1,1-dimethyl-3-phenyl-piperidin-1-ium-4-carbonyl]-4-hydroxy-4-piperidyl]methyl]-1-(4-methoxyphenyl)pyrazolo[3,4-d]pyrimidin-4-one]
0.0412 | O=C([C@@H]1CCNC[C@H]1c1ccccc1)N1CCC(O)(Cn2cnc3c(ccn3-c3ccc(Cl)cc3)c2=O)CC1 [EXAMPLE 143, 7-(4-chlorophenyl)-3-[[4-hydroxy-1-[(3R,4R)-3-phenylpiperidine-4-carbonyl]-4-piperidyl]methyl]pyrrolo[2,3-d]pyrimidin-4-one]
0.0742 | CC(=O)N1CC[C@@H](C(=O)N2CCC(O)(Cn3cnc4c(ccn4-c4ccc(Cl)cc4)c3=O)CC2)[C@H](c2ccccc2)C1 [EXAMPLE 181, 3-[[1-[(3R,4R)-1-acetyl-3-phenyl-piperidine-4-carbonyl]-4-hydroxy-4-piperidyl]methyl]-7-(4-chlorophenyl)pyrrolo[2,3-d]pyrimidin-4-one]
0.0393 | COc1cc(-n2ccc3c(=O)n(CC4(O)CCN(C(=O)[C@@H]5CCNC[C@H]5c5ccccc5)CC4)cnc32)ccc1F [EXAMPLE 157, 7-(4-fluoro-3-methoxy-phenyl)-3-[[4-hydroxy-1-[(3R,4R)-3-phenylpiperidine-4-carbonyl]-4-piperidyl]methyl]pyrrolo[2,3-d]pyrimidin-4-one]
0.0884 | COc1cccc(-n2ccc3c(=O)n(CC4(O)CCN(C(=O)[C@@H]5CCN(C(C)=O)C[C@H]5c5ccccc5)CC4)cnc32)c1 [EXAMPLE 179, 3-[[1-[(3R,4R)-1-acetyl-3-phenyl-piperidine-4-carbonyl]-4-hydroxy-4-piperidyl]methyl]-7-(3-methoxyphenyl)pyrrolo[2,3-d]pyrimidin-4-one]
0.0567 | O=C([C@@H]1CCNC[C@H]1c1ccccc1)N1CCC(O)(Cn2cnc3c(ccn3-c3cccc(Cl)c3)c2=O)CC1 [EXAMPLE 142, 7-(3-chlorophenyl)-3-[[4-hydroxy-1-[(3R,4R)-3-phenylpiperidine-4-carbonyl]-4-piperidyl]methyl]pyrrolo[2,3-d]pyrimidin-4-one]
0.406 | CC(=O)N1CC[C@@H](C(=O)N2CCC(O)(Cn3cnc4c(ccn4-c4ccccc4)c3=O)CC2)[C@H](c2ccccc2)C1 [EXAMPLE 147, 3-[[1-[(3R,4R)-1-acetyl-3-phenyl-piperidine-4-carbonyl]-4-hydroxy-4-piperidyl]methyl]-7-phenyl-pyrrolo[2,3-d]pyrimidin-4-one]
0.0648 | CN1CC[C@@H](C(=O)N2CCC(O)(Cn3cnc4c(ccn4-c4cccc(Cl)c4)c3=O)CC2)[C@H](c2ccccc2)C1 [EXAMPLE 152, 7-(3-chlorophenyl)-3-[[4-hydroxy-1-[(3R,4R)-1-methyl-3-phenyl-piperidine-4-carbonyl]-4-piperidyl]methyl]pyrrolo[2,3-d]pyrimidin-4-one]
0.089 | CC(=O)N1CC[C@@H](C(=O)N2CCC(O)(Cn3cnc4c(ccn4-c4cccc(Cl)c4)c3=O)CC2)[C@H](c2ccccc2)C1 [EXAMPLE 180, 3-[[1-[(3R,4R)-1-acetyl-3-phenyl-piperidine-4-carbonyl]-4-hydroxy-4-piperidyl]methyl]-7-(3-chlorophenyl)pyrrolo[2,3-d]pyrimidin-4-one]
0.103 | CC(C)C(=O)N1CC[C@@H](C(=O)N2CCC(O)(Cn3cnc4c(ccn4-c4ccccc4)c3=O)CC2)[C@H](c2ccccc2)C1 [EXAMPLE 177, 3-[[4-hydroxy-1-[(3R,4R)-1-(2-methylpropanoyl)-3-phenyl-piperidine-4-carbonyl]-4-piperidyl]methyl]-7-phenyl-pyrrolo[2,3-d]pyrimidin-4-one]
0.083 | CC(C)(C)C(=O)N1CC[C@@H](C(=O)N2CCC(O)(Cn3cnc4c(ccn4-c4ccccc4)c3=O)CC2)[C@H](c2ccccc2)C1 [EXAMPLE 184, 3-[[1-[(3R,4R)-1-(2,2-dimethylpropanoyl)-3-phenyl-piperidine-4-carbonyl]-4-hydroxy-4-piperidyl]methyl]-7-phenyl-pyrrolo[2,3-d]pyrimidin-4-one]
0.102 | CC(=O)N1CC[C@@H](C(=O)N2CCC(O)(Cn3cnc4c(ccn4-c4ccc(F)cc4)c3=O)CC2)[C@H](c2ccccc2)C1 [EXAMPLE 166, 3-[[1-[(3R,4R)-1-acetyl-3-phenyl-piperidine-4-carbonyl]-4-hydroxy-4-piperidyl]methyl]-7-(4-fluorophenyl)pyrrolo[2,3-d]pyrimidin-4-one]
0.108 | CC(C)CN1CC[C@@H](C(=O)N2CCC(O)(Cn3cnc4c(ccn4-c4ccccc4)c3=O)CC2)[C@H](c2ccccc2)C1 [EXAMPLE 163, 3-[[4-hydroxy-1-[(3R,4R)-1-isobutyl-3-phenyl-piperidine-4-carbonyl]-4-piperidyl]methyl]-7-phenyl-pyrrolo[2,3-d]pyrimidin-4-one]

Continued, compound first:

SMILES | IC50 [µM]
O=C([C@@H]1CCNC[C@H]1c1ccccc1)N1CCC(O)(Cn2cnc3c(cnn3-c3ccccc3)c2=O)CC1 [EXAMPLE 103, 5-[[4-hydroxy-1-[(3R,4R)-3-phenylpiperidine-4-carbonyl]-4-piperidyl]methyl]-1-phenyl-pyrazolo[3,4-d]pyrimidin-4-one] | 0.0529
O=C([C@@H]1CCN(CC(F)(F)F)C[C@H]1c1ccccc1)N1CCC(O)(Cn2cnc3[nH]ccc3c2=O)CC1 [EXAMPLE 117, 3-[[4-hydroxy-1-[(3R,4R)-3-phenyl-1-(2,2,2-trifluoroethyl)piperidine-4-carbonyl]-4-piperidyl]methyl]-7H-pyrrolo[2,3-d]pyrimidin-4-one] | 1.2
CN1CC[C@@H](C(=O)N2CCC(O)(Cn3cnc4c(ccn4-c4ccc(F)cc4)c3=O)CC2)[C@H](c2ccccc2)C1 [EXAMPLE 141, 7-(4-fluorophenyl)-3-[[4-hydroxy-1-[(3R,4R)-1-methyl-3-phenyl-piperidine-4-carbonyl]-4-piperidyl]methyl]pyrrolo[2,3-d]pyrimidin-4-one] | 0.0748
COc1cccc(-n2ccc3c(=O)n(CC4(O)CCN(C(=O)[C@@H]5CCNC[C@H]5c5ccccc5)CC4)cnc32)c1 [EXAMPLE 136, 3-[[4-hydroxy-1-[(3R,4R)-3-phenylpiperidine-4-carbonyl]-4-piperidyl]methyl]-7-(3-methoxyphenyl)pyrrolo[2,3-d]pyrimidin-4-one] | 0.0486
O=C([C@@H]1CCNC[C@H]1c1ccccc1)N1CCC(O)(Cn2cnc3c(ccn3-c3ccccn3)c2=O)CC1 [EXAMPLE 104, 3-[[4-hydroxy-1-[(3R,4R)-3-phenylpiperidine-4-carbonyl]-4-piperidyl]methyl]-7-(2-pyridyl)pyrrolo[2,3-d]pyrimidin-4-one] | 0.394
COc1ccc(-n2ncc3c(=O)n(CC4(O)CCN(C(=O)[C@@H]5CCN(C(=O)OC(C)(C)C)C[C@H]5c5ccccc5)CC4)cnc32)cc1 [EXAMPLE 44, tert-butyl (3R,4R)-4-[4-hydroxy-4-[[1-(4-methoxyphenyl)-4-oxo-pyrazolo[3,4-d]pyrimidin-5-yl]methyl]piperidine-1-carbonyl]-3-phenyl-piperidine-1-carboxylate] | 0.0615
COc1cc(-n2ccc3c(=O)n(CC4(O)CCN(C(=O)[C@@H]5CCN(C(=O)OC(C)(C)C)C[C@H]5c5ccccc5)CC4)cnc32)ccc1F [EXAMPLE 57, tert-butyl (3R,4R)-4-[4-[[7-(4-fluoro-3-methoxy-phenyl)-4-oxo-pyrrolo[2,3-d]pyrimidin-3-yl]methyl]-4-hydroxy-piperidine-1-carbonyl]-3-phenyl-piperidine-1-carboxylate] | 0.0702
CC(C)(C)OC(=O)N1CC[C@@H](C(=O)N2CCC(O)(Cn3cnc4c(cnn4-c4ccc5c(c4)OCCO5)c3=O)CC2)[C@H](c2ccccc2)C1 [EXAMPLE 64, tert-butyl (3R,4R)-4-[4-[[1-(2,3-dihydro-1,4-benzodioxin-6-yl)-4-oxo-pyrazolo[3,4-d]pyrimidin-5-yl]methyl]-4-hydroxy-piperidine-1-carbonyl]-3-phenyl-piperidine-1-carboxylate] | 0.0687
CC(C)(C)OC(=O)N1CC[C@@H](C(=O)N2CCC(O)(Cn3cnc4sccc4c3=O)CC2)[C@H](c2ccccc2)C1 [EXAMPLE 2, tert-butyl (3R,4R)-4-[4-hydroxy-4-[(4-oxothieno[2,3-d]pyrimidin-3-yl)methyl]piperidine-1-carbonyl]-3-phenyl-piperidine-1-carboxylate] | 0.128
CN1CC[C@@H](C(=O)N2CCC(O)(Cn3cnc4c(ccn4-c4ccccc4)c3=O)CC2)[C@H](c2ccccc2)C1 [EXAMPLE 121, 3-[[4-hydroxy-1-[(3R,4R)-1-methyl-3-phenyl-piperidine-4-carbonyl]-4-piperidyl]methyl]-7-phenyl-pyrrolo[2,3-d]pyrimidin-4-one] | 0.14
CC(C)(C)OC(=O)N1CC[C@@H](C(=O)N2CCC(O)(Cn3cnc4c(ccn4-c4ccccn4)c3=O)CC2)[C@H](c2ccccc2)C1 [EXAMPLE 15, tert-butyl (3R,4R)-4-[4-hydroxy-4-[[4-oxo-7-(2-pyridyl)pyrrolo[2,3-d]pyrimidin-3-yl]methyl]piperidine-1-carbonyl]-3-phenyl-piperidine-1-carboxylate] | 0.274
